Measured values reported in ChEMBL document CHEMBL1201862, “PubChem BioAssay data set” (2004).
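96-well plates; 48 h exposure; 5 concentrations. Endpoints by linear interpolation between flanking doses. Not reached: highest tested concentration assigned. GI50: concentration for 50% inhibition of growth.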 The source made the active and inactive calls. No stated cut-off is given here; in the data, active = GI50 up to about 1.1 µM and inactive = higher.

What was measured:
Assay in all cases: DTP human tumour cell line panel, 48 h
SK-OV-3 = test system: SK-OV-3
SNB-75 = test system: SNB-75
TK-10 = test system: TK-10
OVCAR-5 = test system: OVCAR-5
NCI-H226 = test system: NCI-H226
NCI-H23 = test system: NCI-H23
K562 = test system: K562
HT-29 = test system: HT-29
786-0 = test system: 786-0
SK-MEL-28 = test system: SK-MEL-28
U-251 = test system: U-251
A549 = test system: A549
OVCAR-8 = test system: OVCAR-8
COLO 205 = test system: COLO 205
EKVX = test system: EKVX
SK-MEL-2 = test system: SK-MEL-2
NCI-H460 = test system: NCI-H460
LOX IMVI = test system: LOX IMVI

Measured: GI50

COc1ccc2c(c1)OCCCN(C)OC2c1ccccc1 (stereo unspecified)
inactive: SK-OV-3 > 100 µM | SNB-75 > 100 µM | TK-10 > 100 µM | OVCAR-5 > 100 µM | NCI-H226 > 100 µM | NCI-H23 > 100 µM | K562 > 100 µM | HT-29 > 100 µM | 786-0 > 100 µM | SK-MEL-28 89.3 µM | U-251 > 100 µM | A549 > 100 µM | OVCAR-8 > 100 µM | COLO 205 > 100 µM | EKVX > 100 µM | SK-MEL-2 > 100 µM

O=C(c1ccccc1)c1c(-c2ccccc2)sc2nc3ccccc3nc12
inactive: SK-OV-3 > 100 µM | SNB-75 32.8 µM | TK-10 > 100 µM | OVCAR-5 > 100 µM | NCI-H226 20.3 µM | NCI-H23 > 100 µM | K562 > 100 µM | NCI-H460 > 100 µM | HT-29 > 100 µM | 786-0 38.1 µM | SK-MEL-28 > 100 µM | U-251 > 100 µM | A549 > 100 µM | OVCAR-8 > 100 µM | COLO 205 > 100 µM | EKVX > 100 µM | SK-MEL-2 > 100 µM

Cc1ccc(C(=O)/C=C/c2cccc([N+](=O)[O-])c2)cc1
inactive: SK-OV-3 > 94.4 µM | SNB-75 > 47.3 µM | TK-10 > 100 µM | NCI-H226 > 58.7 µM | NCI-H23 > 74.5 µM | K562 28.4 µM | NCI-H460 > 100 µM | HT-29 29.3 µM | 786-0 28.4 µM | SK-MEL-28 > 100 µM | U-251 22.2 µM | A549 > 100 µM | OVCAR-8 42.9 µM | COLO 205 > 40.7 µM | EKVX > 100 µM | SK-MEL-2 > 100 µM | LOX IMVI 66.4 µM

ClCCCCOC1CCCCO1 (stereo unspecified)
inactive: SK-OV-3 > 100 µM | SNB-75 > 100 µM | TK-10 > 100 µM | OVCAR-5 > 100 µM | NCI-H226 > 100 µM | NCI-H23 > 100 µM | NCI-H460 > 100 µM | HT-29 > 100 µM | 786-0 > 100 µM | SK-MEL-28 > 100 µM | U-251 > 100 µM | A549 > 100 µM | OVCAR-8 > 100 µM | COLO 205 > 100 µM | EKVX > 100 µM | SK-MEL-2 > 100 µM

COC(=O)C(=O)C(C#N)c1c(Cl)cccc1Cl (stereo unspecified)
inactive: SK-OV-3 > 100 µM | SNB-75 > 100 µM | TK-10 > 100 µM | OVCAR-5 > 100 µM | NCI-H226 > 100 µM | NCI-H23 > 100 µM | K562 > 100 µM | NCI-H460 > 100 µM | HT-29 > 100 µM | 786-0 > 100 µM | SK-MEL-28 > 100 µM | A549 > 100 µM | OVCAR-8 > 100 µM | COLO 205 > 100 µM | EKVX > 100 µM | SK-MEL-2 > 100 µM | LOX IMVI > 100 µM

O=C1C2Cc3ccccc3CN2C(=O)N1CCN1CCOCC1 (stereo unspecified)
inactive: TK-10 > 100 µM | OVCAR-5 > 100 µM | NCI-H226 > 100 µM | NCI-H23 > 100 µM | K562 > 100 µM | NCI-H460 > 100 µM | 786-0 > 100 µM | SK-MEL-28 > 100 µM | U-251 > 100 µM | A549 > 100 µM | OVCAR-8 > 100 µM | COLO 205 > 100 µM | SK-MEL-2 > 100 µM | LOX IMVI > 100 µM

CN(C)CCCCC1CCN(CC(=O)N2c3ccccc3NC(=O)c3ccccc32)CC1
inactive: SK-OV-3 > 100 µM | SNB-75 > 100 µM | TK-10 > 100 µM | NCI-H226 > 100 µM | NCI-H23 > 100 µM | K562 > 100 µM | HT-29 61.2 µM | 786-0 > 100 µM | SK-MEL-28 > 100 µM | A549 > 100 µM | OVCAR-8 > 100 µM | COLO 205 > 100 µM | EKVX > 100 µM | SK-MEL-2 > 100 µM
